Laboratory results published in PMC12632547 (bioRxiv, 2025).

Key:
human GLP-1R = human GLP-1R (Homo sapiens, UniProt P43220); assay: In vitro GLP-1 receptor potency, cAMP signaling; format: cell-based; conditions: In vitro receptor activity cAMP assay (EC50), CRE-Luc reporter, BHK cells expressing human GLP-1R; mean ± SD, three independent experiments
[1] = Murine plasma pharmacokinetic; format: in vivo, male ICR mice
DPP-4 = DPP-4 (Homo sapiens, UniProt P27487); assay: In vitro protease stability: DPP-4 half-life assay; format: in vitro ADME; conditions: recombinant DPP-4 enzyme, pH 7.4
DPP-4, sequence (P27487 whole entry): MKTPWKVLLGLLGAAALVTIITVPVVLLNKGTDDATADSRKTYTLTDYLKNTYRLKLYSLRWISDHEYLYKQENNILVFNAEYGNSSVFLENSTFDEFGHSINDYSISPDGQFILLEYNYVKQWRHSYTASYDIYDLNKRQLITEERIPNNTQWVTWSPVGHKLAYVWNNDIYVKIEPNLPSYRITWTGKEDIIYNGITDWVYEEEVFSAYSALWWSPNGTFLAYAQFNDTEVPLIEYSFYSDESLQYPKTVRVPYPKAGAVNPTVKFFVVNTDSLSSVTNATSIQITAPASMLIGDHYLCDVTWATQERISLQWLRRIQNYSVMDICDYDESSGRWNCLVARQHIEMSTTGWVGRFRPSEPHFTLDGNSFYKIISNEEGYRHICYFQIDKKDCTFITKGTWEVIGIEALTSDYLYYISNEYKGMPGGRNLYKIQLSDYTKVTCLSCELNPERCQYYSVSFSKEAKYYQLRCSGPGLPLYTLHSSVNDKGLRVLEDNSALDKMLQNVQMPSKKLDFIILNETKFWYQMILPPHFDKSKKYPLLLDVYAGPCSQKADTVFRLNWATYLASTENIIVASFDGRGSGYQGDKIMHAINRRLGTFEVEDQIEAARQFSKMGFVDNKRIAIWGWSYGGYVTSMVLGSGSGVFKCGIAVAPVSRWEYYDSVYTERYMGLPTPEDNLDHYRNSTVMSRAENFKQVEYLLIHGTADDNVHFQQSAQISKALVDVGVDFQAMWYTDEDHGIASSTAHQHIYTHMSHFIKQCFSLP

[2] = male, ICR, mouse, plasma, iv, 1 mg kg-1

human GLP-1R, sequence (P43220 24-463): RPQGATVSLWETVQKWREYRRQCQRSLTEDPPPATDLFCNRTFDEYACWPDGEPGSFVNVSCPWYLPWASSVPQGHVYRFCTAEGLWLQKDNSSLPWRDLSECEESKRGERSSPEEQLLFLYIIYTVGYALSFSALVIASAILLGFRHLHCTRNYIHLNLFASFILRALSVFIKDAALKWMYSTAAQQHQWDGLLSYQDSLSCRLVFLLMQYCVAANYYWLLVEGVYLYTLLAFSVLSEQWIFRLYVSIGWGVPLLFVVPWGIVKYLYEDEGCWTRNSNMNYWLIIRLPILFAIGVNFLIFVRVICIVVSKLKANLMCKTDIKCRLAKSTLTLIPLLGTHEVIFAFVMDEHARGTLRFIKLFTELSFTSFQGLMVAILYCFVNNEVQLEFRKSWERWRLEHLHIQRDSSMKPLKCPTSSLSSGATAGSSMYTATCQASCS

Compound `CC[C@H](C)[C@H](NC(=O)[C@H](Cc1ccccc1)NC(=O)[C@H](CCC(=O)O)NC(=O)[C@H](CCCCN)NC(=O)[C@H](C)NC(=O)[C@H](C)NC(=O)[C@H](CCC(N)=O)NC(=O)CNC(=O)[C@H](CCC(=O)O)NC(=O)[C@H](CC(C)C)NC(=O)[C@H](Cc1ccc(O)cc1)NC(=O)[C@H](CO)NC(=O)[C@H](CO)NC(=O)[C@@H](NC(=O)[C@H](CC(=O)O)NC(=O)[C@H](CO)NC(=O)[C@@H](NC(=O)[C@H](Cc1ccccc1)NC(=O)[C@@H](NC(=O)CNC(=O)[C@H](CCC(=O)O)NC(=O)[C@H](C)NC(=O)N(N)Cc1c[nH]cn1)[C@@H](C)O)[C@@H](C)O)C(C)C)C(=O)N[C@@H](C)C(=O)N[C@@H](Cc1c[nH]c2ccccc12)C(=O)N[C@@H](CC(C)C)C(=O)N[C@H](C(=O)N[C@@H](CCCNC(=N)N)C(=O)NCC(=O)N[C@@H](CCCNC(=N)N)C(=O)NCC(=O)O)C(C)C` [AzaH7, [azaHis^7/R^34]-GLP-1(7–37)] has an EC50 (human GLP-1R) of 0.743 ± 0.164 nM, a clearance [1, 2] of roughly 7 mL/min/kg and a half-life [1, 2] of 1.67 ± 0.52 h. The “plasma half-life” value ([1]; mice, single IV 1 mg kg^−1, plasma, hours converted to minutes) was roughly 1.67 h and the half-life at 0.1 mmol/l (DPP-4) was greater than 24 h.
